Legend:
PSN1 cells, pERK = test: Inhibition of KRas phosphorylation of ERK (Cisbio HTRF Advanced pERK assay); format: cell-based; conditions: Homo sapiens, PSN1, 3 h, read-out: Inhibition (HTRF IC50 nM) of KRas-mediated Phosphorylation of ERK, PSN1
Summary of the method: (§1)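 Cells seeded at 6,000/well in RPMI with 10% FBS, grown overnight at 37 °C, then exposed 3 h to 10-dose 3-fold compound series from 10 uM (0.8% DMSO final); 0.2 uM trametinib as minimum control. Lysates read for pERK by HTRF after 2 h antibody incubation at room temperature.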

HCT116 cells, pERK = test: as above; format: cell-based; conditions: Homo sapiens, HCT-116, 3 hrs, read-out: Inhibition (HTRF IC50 nM) of KRas-mediated Phosphorylation of ERK, HCT116
Summary of the method: as §1

H727 cells, pERK = test: as above; format: cell-based; conditions: Homo sapiens, NCI-H727, 3 h, read-out: Inhibition (HTRF IC50 nM) of KRas-mediated Phosphorylation of ERK, H727
Summary of the method: as §1

ASPC1 cells, pERK = test: as above; format: cell-based; conditions: Homo sapiens, ASPC1, 3 h, AsPC-1 cells, read-out: Inhibition (HTRF IC50 nM) of KRas-mediated Phosphorylation of ERK, AsPC-1
Summary of the method: as §1

MKN1 cells, pERK = test: as above; format: cell-based; conditions: Homo sapiens, MKN-1, 3 h, read-out: Inhibition (HTRF IC50 nM) of KRas-mediated Phosphorylation of ERK, MKN1
Summary of the method: as §1

KRas^G12V = target: T1, KRas^G12V (Homo sapiens, UniProt P01116, G12V); test: KRas binding assay (TR-FRET displacement of Cy5 labelled tracer)
T1 construct: […]; biotin (biotinylated); purchased Accelegan Inc
T1 sequence (P01116 1-169 isoform P01116-2 G12V): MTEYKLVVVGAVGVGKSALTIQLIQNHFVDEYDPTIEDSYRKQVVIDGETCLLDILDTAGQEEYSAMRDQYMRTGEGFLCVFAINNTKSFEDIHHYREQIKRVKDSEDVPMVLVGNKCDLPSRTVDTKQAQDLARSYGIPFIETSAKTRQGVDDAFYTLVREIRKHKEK
Procedure: (§2) The ability of a compound to bind to KRas was measured using a TR-FRET displacement assay. […] After a 60-minute incubation at room temperature, the reaction was measured using a BMG LABTECH CLARIO star Plus via TR-FRET. […] The POC values were fit to a 4-parameter IC50 equation and the IC50 value reported.

KRas^G12R = target: T2, KRas^G12R (Homo sapiens, UniProt P01116, G12R); test: as above
T2 construct: […]; biotin (biotinylated); purchased Accelegan Inc
T2 sequence (P01116 1-169 isoform P01116-2 G12R): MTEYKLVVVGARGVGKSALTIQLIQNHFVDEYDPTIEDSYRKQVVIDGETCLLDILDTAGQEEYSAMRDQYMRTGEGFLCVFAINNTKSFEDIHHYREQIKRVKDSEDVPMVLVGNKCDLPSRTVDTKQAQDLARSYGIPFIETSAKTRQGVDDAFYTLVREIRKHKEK
Procedure: as §2

KRas^G12D = target: T3, KRas^G12D (Homo sapiens, UniProt P01116, G12D); test: as above
T3 construct: […]; biotin (biotinylated); purchased Accelegan Inc
T3 sequence (P01116 1-169 isoform P01116-2 G12D): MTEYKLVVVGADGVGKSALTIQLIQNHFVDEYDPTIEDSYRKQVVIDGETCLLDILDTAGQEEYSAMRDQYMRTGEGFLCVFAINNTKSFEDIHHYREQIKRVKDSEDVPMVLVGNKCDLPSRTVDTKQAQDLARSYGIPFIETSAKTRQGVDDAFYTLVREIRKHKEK
Procedure: as §2

Row | SMILES | IC50 (PSN1 cells, pERK) [nM] | IC50 (HCT116 cells, pERK) [nM] | IC50 (H727 cells, pERK) [nM] | IC50 (ASPC1 cells, pERK) [nM] | IC50 (MKN1 cells, pERK) [nM] | IC50 (KRas^G12V) [nM] | IC50 (KRas^G12R) [nM] | IC50 (KRas^G12D) [nM]
1 | CC1(O)COCCN(c2nc(OC[C@@]34CCCN3C[C@H](F)C4)nc3c2CCN(c2cc(O)cc4ccc(F)c(Cl)c24)C3)C1 (stereo partly drawn) [Example 74, 4-(7-(8-chloro-7-fluoro-3-hydroxynaphthalen-1-yl)-2-(((2R,7aS)-2-fluorohexahydro-1H-pyrrolizin-7a-yl)methoxy)-5,6,7,8-tetrahydropyrido[3,4-d]pyrimidin-4-yl)-6-methyl-1,4-oxazepan-6-ol] | 4050 | 1450 | 790 | 253 | 78 | 3 | 4 | ≤ 2
2 | CCc1c(F)ccc2cc(O)cc(N3CCc4c(nc(OC[C@@]56CCCN5C[C@H](F)C6)nc4N4CCOCC(CO)C4)C3)c12 (stereo partly drawn) [Example 65, 5-ethyl-6-fluoro-4-(2-(((2R,7aS)-2-fluorohexahydro-1H-pyrrolizin-7a-yl)methoxy)-4-(6-(hydroxymethyl)-1,4-oxazepan-4-yl)-5,6-dihydropyrido[3,4-d]pyrimidin-7(8H)-yl)naphthalen-2-ol] | 4420 | 1210 | 739 | 1290 | 26 | ≤ 2 | ≤ 2 | 3
3 | CCc1c(F)ccc2cc(O)cc(N3CCc4c(nc(OC[C@@]56CCCN5C[C@H](F)C6)nc4N4CC5CC(O)C(C5)C4)C3)c12 (stereo partly drawn) [Example 63, 3-(7-(8-ethyl-7-fluoro-3-hydroxynaphthalen-1-yl)-2-(((2R,7aS)-2-fluorohexahydro-1H-pyrrolizin-7a-yl)methoxy)-5,6,7,8-tetrahydropyrido[3,4-d]pyrimidin-4-yl)-3-azabicyclo[3.2.1]octan-6-ol] | 6960 | 1170 | 608 | 457 | 33 | ≤ 2 | ≤ 2 | 8
4 | CCc1c(F)ccc2cc(O)cc(N3CCc4c(nc(OC[C@@]56CCCN5C[C@H](F)C6)nc4N4CCCC5(CC(O)C5)C4)C3)c12 (stereo partly drawn) [Example 60, 6-(7-(8-ethyl-7-fluoro-3-hydroxynaphthalen-1-yl)-2-(((2R,7aS)-2-fluorohexahydro-1H-pyrrolizin-7a-yl)methoxy)-5,6,7,8-tetrahydropyrido[3,4-d]pyrimidin-4-yl)-6-azaspiro[3.5]nonan-2-ol] | 6610 | 1120 | 258 | 556 | 29 | ≤ 2 | ≤ 2 | ≤ 2
5 | O=C1CC2(CCCN(c3nc(OC[C@@]45CCCN4C[C@H](F)C5)nc4c3CCN(c3cc(O)cc5ccc(F)c(Cl)c35)C4)C2)N1 (stereo partly drawn) [Example 70, 6-(7-(8-chloro-7-fluoro-3-hydroxynaphthalen-1-yl)-2-(((2R,7aS)-2-fluorohexahydro-1H-pyrrolizin-7a-yl)methoxy)-5,6,7,8-tetrahydropyrido[3,4-d]pyrimidin-4-yl)-1,6-diazaspiro[3.5]nonan-2-one] | 750 | 1490 | 471 | 705 | 40 | ≤ 2 | ≤ 2 | ≤ 2
6 | Oc1cc(N2CCc3c(nc(OC[C@@]45CCCN4C[C@H](F)C5)nc3N3CCOCC(n4cccn4)C3)C2)c2c(Br)c(F)ccc2c1 (stereo partly drawn) [Example 221, 4-(4-(6-(1H-pyrazol-1-yl)-1,4-oxazepan-4-yl)-2-(((2R,7aS)-2-fluorotetrahydro-1H-pyrrolizin-7a(5H)-yl)methoxy)-5,8-dihydropyrido[3,4-d]pyrimidin-7(6H)-yl)-5-bromo-6-fluoronaphthalen-2-ol] | ≥ 10000 | – | 1460 | 1360 | 145 | 3 | 5 | 4
7 | CCc1c(F)ccc2cc(O)cc(N3CCc4c(nc(OC[C@@]56CCCN5C[C@H](F)C6)nc4N4CCCn5nncc5C4)C3)c12 [Example 178, 4-(4-(7,8-dihydro-4H-[1,2,3]triazolo[1,5-a][1,4]diazepin-5(6H)-yl)-2-(((2R,7aS)-2-fluorotetrahydro-1H-pyrrolizin-7a(5H)-yl)methoxy)-5,8-dihydropyrido[3,4-d]pyrimidin-7(6H)-yl)-5-ethyl-6-fluoronaphthalen-2-ol] | 7620 | – | 68 | 17 | 20 | ≤ 2 | ≤ 2 | ≤ 2
8 | Oc1cc(N2CCc3c(nc(OC[C@@]45CCCN4C[C@H](F)C5)nc3N3CCCC4(CC(O)C4)C3)C2)c2c(Br)c(F)ccc2c1 (stereo partly drawn) [Example 224, 6-(7-(8-bromo-7-fluoro-3-hydroxynaphthalen-1-yl)-2-(((2R,7aS)-2-fluorohexahydro-1H-pyrrolizin-7a-yl)methoxy)-5,6,7,8-tetrahydropyrido[3,4-d]pyrimidin-4-yl)-6-azaspiro[3.5]nonan-2-ol] | ≥ 10000 | – | 651 | 976 | 62 | ≤ 2 | ≤ 2 | ≤ 2
9 | Oc1cc(N2CCc3c(nc(OC[C@@]45CCCN4C[C@H](F)C5)nc3N3CC4CC(O)C(C4)C3)C2)c2c(Br)c(F)ccc2c1 (stereo partly drawn) [Example 215, 3-(7-(8-bromo-7-fluoro-3-hydroxynaphthalen-1-yl)-2-(((2R,7aS)-2-fluorohexahydro-1H-pyrrolizin-7a-yl)methoxy)-5,6,7,8-tetrahydropyrido[3,4-d]pyrimidin-4-yl)-3-azabicyclo[3.2.1]octan-6-ol] | 7580 | – | 957 | 1300 | 203 | 3 | 3 | 10
10 | CCc1c(F)ccc2cc(O)cc(N3CCc4c(nc(OC[C@@]56CCCN5C[C@H](F)C6)nc4N4CCCC5(CNC5=O)C4)C3)c12 (stereo partly drawn) [Example 64, 6-(7-(8-ethyl-7-fluoro-3-hydroxynaphthalen-1-yl)-2-(((2R,7aS)-2-fluorohexahydro-1H-pyrrolizin-7a-yl)methoxy)-5,6,7,8-tetrahydropyrido[3,4-d]pyrimidin-4-yl)-2,6-diazaspiro[3.5]nonan-1-one] | 2630 | 891 | 778 | 595 | 83 | ≤ 2 | ≤ 2 | ≤ 2
11 | O=C1NCC12CCCN(c1nc(OC[C@@]34CCCN3C[C@H](F)C4)nc3c1CCN(c1cc(O)cc4ccc(F)c(Cl)c14)C3)C2 (stereo partly drawn) [Example 231, 6-(7-(8-chloro-7-fluoro-3-hydroxynaphthalen-1-yl)-2-(((2R,7aS)-2-fluorotetrahydro-1H-pyrrolizin-7a(5H)-yl)methoxy)-5,6,7,8-tetrahydropyrido[3,4-d]pyrimidin-4-yl)-2,6-diazaspiro[3.5]nonan-1-one] | ≥ 10000 | – | 4380 | 2360 | 929 | 15 | 26 | 12
12 | CCc1c(F)ccc2cc(O)cc(N3CCc4c(nc(OC[C@@]56CCCN5C[C@H](F)C6)nc4N4CCCc5nc(N)sc5C4)C3)c12 [Example 181, 4-(4-(2-amino-7,8-dihydro-4H-thiazolo[5,4-c]azepin-5(6H)-yl)-2-(((2R,7aS)-2-fluorohexahydro-1H-pyrrolizin-7a-yl)methoxy)-5,6-dihydropyrido[3,4-d]pyrimidin-7(8H)-yl)-5-ethyl-6-fluoronaphthalen-2-ol] | ≥ 10000 | – | 191 | 228 | 90 | ≤ 2 | ≤ 2 | ≤ 2
13 | Oc1cc(N2CCc3c(nc(OC[C@@]45CCCN4C[C@H](F)C5)nc3N3CCCC4(CC(O)C4)C3)C2)c2c(Cl)c(F)ccc2c1 (stereo partly drawn) [Example 71, 6-(7-(8-chloro-7-fluoro-3-hydroxynaphthalen-1-yl)-2-(((2R,7aS)-2-fluorohexahydro-1H-pyrrolizin-7a-yl)methoxy)-5,6,7,8-tetrahydropyrido[3,4-d]pyrimidin-4-yl)-6-azaspiro[3.5]nonan-2-ol] | 6040 | – | 848 | 1170 | 211 | ≤ 2 | ≤ 2 | 4
14 | OCC1COCCN(c2nc(OC[C@@]34CCCN3C[C@H](F)C4)nc3c2CCN(c2cc(O)cc4ccc(F)c(Br)c24)C3)C1 (stereo partly drawn) [Example 220, 5-bromo-6-fluoro-4-(2-(((2R,7aS)-2-fluorohexahydro-1H-pyrrolizin-7a-yl)methoxy)-4-(6-(hydroxymethyl)-1,4-oxazepan-4-yl)-5,6-dihydropyrido[3,4-d]pyrimidin-7(8H)-yl)naphthalen-2-ol] | 4100 | – | 616 | 668 | 29 | ≤ 2 | ≤ 2 | ≤ 2

From patent US12421253B2 (Mirati Therapeutics, Inc., priority 2020, dated 2025)
